Test results taken from USRE37828E1, “Treatment and prevention of adhesions” (Hadasit Medical Research Services & Development Co., Ltd., priority 1997, dated 2002).
Several values for one entry are separate records, joined by “and”; a condition that tells them apart may be missing. Equal values may be shown once.

How the values were obtained:
peritoneal adhesions = conditions: rats, cited from earlier work
[1] = ascribed to effects on many collagen types and Fe++ ion-binding enzymes; cited from earlier work
adhesions = conditions: infertility surgery, gynecological surgeons; cited from earlier work
[2] = design: species or system rats; conditions: rat, in vivo, ip
Protocol: (§1) The experiment was performed as follows. Abdominal adhesions were induced in two groups of rats as described above in Example 1. […] One group of the rats which underwent surgery received an i.p. injection of Halofuginone every day after the operation for 21 days. The rats were dosed according to body weight, with 1 ug of Halofuginone given per 25 g of body weight. The other group of rats which underwent surgery received saline injections for 21 days.
Two different tests were performed to assess the effect of Halofuginone on the number and severity of adhesions in rats which underwent surgery. […] The experimental method was as follows. For the first test, three groups of rats were prepared as described above in Example 2. At the end of 21 days, the rats were weighed and the number and severity of adhesions were determined according to a double-blind procedure.

abdominal adhesions [3] = test: Post-surgical abdominal adhesions in rats, Halofuginone in the diet: number and severity of adhesions; assay type: in vivo; design: key to Adhesion: 0=no adhesions; I=a thin, filmy, easily separated adhesion; II=several thin adhesions; III=a thick, broad adhesion; IV=several thick adhesions; conditions: for Adhesion: one rat per row
Protocol: (§2) The experiments were performed as follows. First, the abdomen of the rats was shaved and prepared with iodine and alcohol. The abdominal cavity was entered through a mid-line incision. The small intestine was scraped from the duodenum down to from about 9 to about 10 cm from the cecum, until capillary bleeding occurred. To avoid drying, Hartman's solution at about 37° C. was occasionally dripped on the intestine. After replacement of the intestine into the abdominal cavity, the abdomen was closed in two layers with continuous 00 chromic catgut suture. […] Res., Vol 17, p. 254-258, 1985]. After 21 days, the rats were sacrificed and the sutures were reopened to determine the level of adhesion formation and to take biopsies of the tissue.
In the double-blind procedure, adhesions were classified according to the following grading: 0=no adhesions; I=a thin, filmy, easily separated adhesion; II=several thin adhesions; III=a thick, broad adhesion and IV=several thick adhesions. Clearly, 0 is the least severe and IV is the most severe grade.
(§3) In the second experiment, Halofuginone was administered in the diet of two groups of rats at a concentration of 5 mg/kg dry feed for 4 days before surgery, as a pretreatment. Two other groups of rats were fed a normal diet and served as control groups. One of the groups of rats fed Halofuginone and one control group the underwent surgery as described above. Halofuginone treatment was continued for 21 days following surgery, after which the rats were sacrificed and the number and severity of adhesions were determined, and body weight was measured.

collagen type I [4] = test: Collagen α1(I) gene expression and collagen type I content in surgically insulted abdominal tissue (in situ hybridization, Sirius red); assay type: in vivo; conditions: rats with surgery, Halofuginone i.p. daily for 21 days
Protocol: as §2
The tissue was sectioned so that histological studies could be performed. Briefly, the tissue samples were collected into phosphate-buffered saline (PBS) and fixed overnight in 4% paraformaldehyde in PBS at 4° C. Serial 5 μm sections were prepared after the samples had been dehydrated in graded ethanol solutions, cleared in chloroform and embedded in Paraplast. Differential staining of collagenous and non-collagenous proteins were performed with 0.1% Sirius red and 0.1% fast green as a counter-stain in picric acid. This procedure stains collagen red [Gascon-Barre, M., et al., J. Histochem. Cytochem., Vol 37, p. 377-381, 1989].
For hybridization with the genetic probe, the sections were deparafinized in xylene, rehydrated through a graded series of ethanol solutions, rinsed in distilled water for 5 minutes and then incubated in 2×SSC [What is the recipe?] at 70° C. for 30 minutes. The sections were then rinsed in distilled water and treated with pronase, 0.125 mb/ml in 50 mM Tris-HCl, 5 mM EDTA, pH 7.5 for 10 minutes. […] Alkaline phosphatase activity was detected in the sections as previously described [Knopov, V., et al., Bone, Vol 16 p. […]
After 21 days, tissue samples were taken for histological analysis as described above. Both collagen type I content of the tissue, and the level of collagen a(1)I gene expression were measured.

alkaline phosphatase = test: Alkaline phosphatase activity in tissue sections after abdominal surgery; assay type: in vivo; conditions: rats with surgery injected with Halofuginone, 21 days; FIG. 3C
Protocol: For hybridization with the genetic probe, the sections were deparafinized in xylene, rehydrated through a graded series of ethanol solutions, rinsed in distilled water for 5 minutes and then incubated in 2×SSC [What is the recipe?] at 70° C. for 30 minutes. The sections were then rinsed in distilled water and treated with pronase, 0.125 mb/ml in 50 mM Tris-HCl, 5 mM EDTA, pH 7.5 for 10 minutes. After digestion, the slides were rinsed with distilled water, post-fixed in 10% formalin in PBS and blocked in 0.2% glycine. After blocking, the slides were rinsed in distilled water, rapidly dehydrated through graded ethanol solutions and air-dried for several hours. Before hybridization, the 1600 bp rat collagen α1(I) insert was cut out from the original plasmid, pUC18, and inserted into the pSafyre plasmid. The sections were then hybridized with this probe after digoxigenin-labelling. Alkaline phosphatase activity was detected in the sections as previously described [Knopov, V., et al., Bone, Vol 16 p. 329S-334S, 1995].
After 21 days, tissue samples were taken from all three groups of rats and histological sections were prepared as described in Example 1, and alkaline phosphatase activity was measured as described in Example 1.

abdominal adhesions [5] = test: Post-surgical abdominal adhesions in rats, Halofuginone i.p. injection: number and severity of adhesions; assay type: in vivo; design: key to Adhesion Score: 0=no adhesions; I=a thin, filmy, easily separated adhesion; II=several thin adhesions; III=a thick, broad adhesion; IV=several thick adhesions
Protocol: as §2
as §1, with “The other group of rats which underwent surgery received saline injections for 21 days.” left out
Two different tests were performed to assess the effect of Halofuginone on the number and severity of adhesions in rats which underwent surgery. […] At the end of 21 days, the rats were weighed and the number and severity of adhesions were determined according to a double-blind procedure. […]

[6] = design: species or system rats; conditions: rat, in vivo
Protocol: as §3

collagen type I [7] = conditions: cited from earlier work
skin wound [8] = test: Wound healing and collagen content of skin wounds in irradiated and non-irradiated mice; assay type: in vivo, C3H mice; conditions: Halofuginone 1 μg/mouse i.p. every other day, 14 days
Protocol: The experiment was conducted as follows. First C3H, defined-flora, pathogen-free female mice of 12-14 weeks of age were anesthetized with 60 mg/kg sodium phenobarbital. The mice were then shaved. One group of mice was then irradiated as follows. First, a flap of skin about 40 mm long and about 20 mm wide was pulled through a slit in the lead cover of an irradiation jig and secured with tape, so that only the flap of skin was exposed. This exposed skin was then irradiated by using a 175 kVp/20 mA orthovoltage X-ray source, with a 2 mm Cu filter at a dose rate of 1.0 Gy/min. A standard dose of 18 Gy was delivered.
All of the mice were then wounded by making a fill depth incision, about 25 mm long, in the skin along the midline of the lower back. Note that for the irradiated animals, the wound was made within the irradiated area, immediately following irradiation. For all mice, the incision was immediately closed by 3-4 metallic wound closure clips which were removed 2 days later.
After wounding, the mice were injected i.p every other day, either with 1 μg/mouse Halofuginone or with saline as a control. After 14 days, 2 days following the last injection, the mice were sacrificed and skin samples were collected into phosphate-buffered saline (PBS) and fixed in 4% paraformaldehyde in PBS at 4° C. […]

skin wound [9] = test: Wound strength (bursting point of skin strips, Instron tensiometer); assay type: in vivo, rats; conditions: irradiated or non-irradiated animals, one or six injections of Halofuginone; FIG. 5
Protocol: Wound strength was assessed by preparing rats substantially as described above, except that one group of rats (not irradiated) only received one injection of Halofuginone after wounding. The strength of wounds was measured as follows. First, a square of skin which was approximately 20 mm long and 16 mm wide, and which included the main part of the wound, was excised from sacrificed rats. Next, the skin was cut, perpendicular to the wound, to yield 7 strips of skin, each of which was 2 mm wide. The skin strips were secured between paper reinforcement frames and loaded on an Instron tensiometer for stretching at a constant rate of 25 mm/min. The bursting point was then recorded.

[10] = system: adhesions between tendon and its sheath; conditions: chickens, local treatment through a catheter; cited from earlier work

Molecule: Oc1cc(O)c2c(c1)O[C@H](c1ccc(O)c(O)c1)[C@@H](O)C2 [cianidanol]
- number of post-surgical adhesions (peritoneal adhesions): decrease
- toxicity [1]: toxic

Molecule: povidone-iodine
- reduction of the number of peritoneal adhesions after surgery (peritoneal adhesions; effect ascribed to an anti-microbial effect): 35%

Molecule: dextran
- adhesive prevention (adhesions): little success

Molecule: O=C(CC1NCCCC1O)Cn1cnc2cc(Br)c(Cl)cc2c1=O (centres unmarked) [Halofuginone]
- reduction in weight gain [2]: more pronounced
- Adhesion (abdominal adhesions [3]; Group 2: rats with surgery, Halofuginone 5 mg/kg dry feed from 4 days before to 21 days after surgery): 0-1 (3×) and 1 (3×) and 1-2 (2×) and 0 (2×)
- Adhesion (abdominal adhesions [3]; Group 3: rats without surgery, Halofuginone 5 mg/kg dry feed): 0
- number of rats with an adhesion (abdominal adhesions [3]; Halofuginone in diet, rats with surgery, compared to untreated operated rats): smaller number
- damage to the villi (collagen type I [4]): much less damage
- collagen α1(I) gene expression (collagen type I [4]; FIG. 2C): low levels
- collagen type I content (collagen type I [4]; FIG. 2F): low level
- alkaline phosphatase activity (alkaline phosphatase): substantially no alkaline phosphatase activity
- Adhesion Score (abdominal adhesions [5]; Group 2: rats with surgery, Halofuginone i.p. 1 ug per 25 g body weight daily for 21 days, one rat per row): 0 (3×) and 0-1 and 2
- number and severity of adhesions (abdominal adhesions [5]; Halofuginone-treated (i.p.) compared to non-treated rats after surgery): sharply reduced
- weight gain [6]: substantially similar
- inhibition of synthesis of collagen type I versus other collagens (α2(I), type II, type III, type X) (collagen type I [7]): only inhibits the synthesis of collagen type I
- collagen content of the wound (skin wound [8]; irradiated (18 Gy) mouse, FIG. 4H): significantly lowered
- wound healing (skin wound [8]; irradiated and non-irradiated mice): healed
- wound strength (skin wound [9]): did not reduce wound strength
- prevention of adhesions between tendon and sheath [10]: effective
